Results published in patent US20110165173A1, “THERAPEUTIC AGENT AND DETECTION REAGENT FOR ARTERIOSCLEROTIC DISEASE WHICH TARGETS FOR SALUSIN” (PROTEINEXPRESS CO., LTD., priority 2007, published 2011).

System: ACAT-1 protein expression
Assay: ACAT-1 protein expression in human monocyte-derived macrophages during differentiation (Western blotting)
Format: cell-based
Conditions: for ACAT-1 protein expression vs control cells: 0.6 nM
Experimental: In the Examples below, monocytes were prepared from human peripheral blood and cultured for 7 days so as to have differentiated into macrophages. At such time, salusin-α (0 to 10 nM) and salusin-β (0 to 10 nM) were simultaneously added thereto, and the effects of salusin were examined.
Culture of monocytes obtained from human peripheral blood was performed by a known method. Isolated monocytes were cultured with the addition of RPMI-1640 (15 mL) and then the floating monocytes were subjected to cell counting with a blood cell counting chamber. The cells were seeded on a 6-cm dish so as to result in 4×10^6 cells/2 mL. The monocytes were kept warm at 37° C. in the presence of 5% CO2 for 1 hour such that the cells were allowed to adhere to the dish. The medium was substituted with RPMI-1640 containing 10% human serum, followed by culture for 7 days. The medium was changed every 3 days.
ACAT-1 is an endoplasmic reticulum enzyme that converts intracellular free cholesterol into cholesterol ester. The ACAT-1 gene is important for foaming of macrophages. In order to examine effects of salusin-α and salusin-β on the ACAT-1 expression, the ACAT-1 protein expression was examined by Western blotting.
Monocyte-derived macrophages that had been cultured for 7 days were washed with PBS 3 times, followed by solubilization with the addition of 10% SDS (sodium dodecyl sulfate) (100 μL) to each dish. Each cell extraction solution was scooped up with a cell scraper, followed by pulverization with the use of a 1-mL TERUMO syringe and a 23-G injection needle for fragmentation (shearing). The resultant was centrifuged at 15,000 rpm for 3 minutes (Himac CF15D2 high-speed micro refrigerated centrifuge; Hitach, Ltd.). The supernatant protein concentration was assayed by the bicinchoninic acid (BCA) method (Pierce) and used as a cell extraction solution for Western blotting.
For ACAT-1 protein detection, an anti-human ACAT-1 polyclonal antibody (DM10 donated from Dr. Chang, Dartmouth Medical School) [Chang CCY et al., J Biol Chem. 1995; 270: 29532-29540] prepared by immunizing a rabbit was used as a primary antibody (final concentration: 0.5 μg/mL) for a reaction on a transfer membrane at room temperature for 1 hour. The transfer membrane was washed with PBS-0.1% Tween 20, followed by a reaction with a secondary antibody (anti-rabbit IgG antibody: anti-rabbit IgG donkey antibody conjugated with horseradish peroxidase (HRP) (GE Healthcare Bio-Science)) at room temperature for 1 hour. For a secondary antibody, a stock solution (0.5 μL) was diluted 10,000-fold with PBS-0.1% Tween 20 (5 mL), and the resultant was used. Washing was carried out with PBS-0.1% Tween 20, followed by ACAT-1 protein detection with the use of Lumi-Light Plus (PerkinElmer Life Sciences).
Human peripheral blood monocytes (4×10^6 cells/6-cm dish) were cultured for 7 days in an RPMI-1640 medium (2 mL) containing 10% human serum so as to differentiate into macrophages. In order to examine the salusin dose-dependent effects on the ACAT-1 protein expression, salusin-α or salusin-β was added to the medium at a concentration of 0, 0.2, 0.4, 0.6, 0.8, or 1.0 nM at the beginning of culture. On Day 7 of culture, macrophage cells differentiated from monocytes were washed with PBS and then solubilized in 10% SDS (100 μL), followed by Western blotting with the use of an ACAT-1-specific antibody. […]

Substance | inhibition of ACAT-1 protein expression (0 to 1.0 nM added at beginning of 7-day culture, concentration-dependent) | ACAT-1 protein expression vs control cells (Day 1, 3, or 5 after seeding) | ACAT-1 protein expression vs control cells (Day 7) | ACAT-1 protein expression level relative to control (0.6 nM (peak level), added at beginning of 7-day culture, attenuated above 0.6 nM) | ACAT-1 protein expression vs control cells (Day 5 or later)
salusin-α: peptide (SEQ ID NO: 1) comprising 28 amino acid residues, generated by processing from preprosalusin (SGALPPAPAAPRPALRAQRAGPAGPGAK; listed as Homo sapiens) | approximately 40% | not found to significantly differ | significantly inhibited | – | –
salusin-β: peptide (SEQ ID NO: 3) comprising 20 amino acid residues, generated by processing from preprosalusin (AIFIFIRWLLKLGHHGRAPP; listed as Homo sapiens) [reference compound] | – | – | – | 2.1 times | significantly increased
